Source: ChEMBL document CHEMBL3885881, “DrugMatrix”

Species on record: Rattus norvegicus
Experiment: DrugMatrix - Regimen: Daily Repeat
Type: toxicity, organism-based, Sprague-Dawley
Design: regimen Daily Repeat, gender Male, age 6-8 weeks
Conditions: in vivo, sc, route subcutaneous, […]
[1] = 0 mg/kg, 72 h, tissue Blood, dose level Control, time 3 day
[2] = 0 mg/kg, 72 h, tissue Plasma, dose level Control, time 3 day
[3] = 0 mg/kg, 120 h, tissue Blood, dose level Control, time 5 day
[4] = 0 mg/kg, 120 h, tissue Plasma, dose level Control, time 5 day
[5] = 10 mg/kg, 72 h, tissue Blood, dose level Low, time 3 day
[6] = 10 mg/kg, 72 h, tissue Plasma, dose level Low, time 3 day
[7] = 10 mg/kg, 120 h, tissue Blood, dose level Low, time 5 day

Substance: COBALT(II) ACETYLACETONATE
- ABSOLUTE BASOPHIL [1]: 0 CELLS/uL
- ABSOLUTE EOSINOPHIL [1]: 42.67 CELLS/uL
- ABSOLUTE LYMPHOCYTE [1]: 10202 CELLS/uL
- ABSOLUTE MONOCYTE [1]: 261.5 CELLS/uL
- ABSOLUTE SEGMENTED NEUTROPHIL [1]: 2193.83 CELLS/uL
- BASOPHIL [1]: 0%
- EOSINOPHIL [1]: 0.33%
- ERYTHROCYTE COUNT [1]: 5.63 x10E6/uL
- HEMATOCRIT [1]: 35.35%
- HEMOGLOBIN [1]: 13.07 G/DL
- LEUKOCYTE COUNT [1]: 12.7 x10E3/uL
- LYMPHOCYTE [1]: 81.17%
- MEAN CORPUSCULAR HEMOGLOBIN [1]: 23.23 pg
- MEAN CORPUSCULAR HEMOGLOBIN CONCENTRATION [1]: 36.97 G/DL
- MONOCYTE [1]: 2%
- NUCLEATED RED BLOOD CELLS [1]: 0 /100WBC
- PLATELET COUNT [1]: 1180.33 x10E3/uL
- ALANINE AMINOTRANSFERASE [2]: 48.67 u/L
- ALKALINE PHOSPHATASE [2]: 360.67 u/L
- ASPARTATE AMINOTRANSFERASE [2]: 85.5 u/L
- BLOOD UREA NITROGEN [2]: 17.83 mg/dL
- CARBON DIOXIDE [2]: 26.17 mmol/L
- CHOLESTEROL [2]: 71 mg/dL
- CREATINE PHOSPHOKINASE [2]: 515.17 u/L
- CREATININE [2]: 0.22 mg/dL
- GLUCOSE [2]: 192.5 mg/dL
- LACTATE DEHYDROGENASE [2]: 214.67 u/L
- LIPASE [2]: 8.5 u/L
- PHOSPHORUS [2]: 12.95 mg/dL
- POTASSIUM [2]: 6.39 MEQ/L
- TOTAL BILIRUBIN [2]: 0.18 mg/dL
- TOTAL PROTEIN [2]: 5.95 G/DL
- ABSOLUTE BASOPHIL [3]: 0 CELLS/uL
- ABSOLUTE EOSINOPHIL [3]: 188.5 CELLS/uL
- ABSOLUTE LYMPHOCYTE [3]: 12360.83 CELLS/uL
- ABSOLUTE MONOCYTE [3]: 64.33 CELLS/uL
- ABSOLUTE SEGMENTED NEUTROPHIL [3]: 1986.33 CELLS/uL
- BASOPHIL [3]: 0%
- ERYTHROCYTE COUNT [3]: 5.52 x10E6/uL
- HEMOGLOBIN [3]: 13.25 G/DL
- LEUKOCYTE COUNT [3]: 14.6 x10E3/uL
- LYMPHOCYTE [3]: 84.5%
- MEAN CORPUSCULAR HEMOGLOBIN [3]: 24.05 pg
- MEAN CORPUSCULAR HEMOGLOBIN CONCENTRATION [3]: 36.98 G/DL
- MEAN CORPUSCULAR VOLUME [3]: 64.97 fL
- MONOCYTE [3]: 0.5%
- NEUTROPHIL [3]: 13.67%
- NUCLEATED RED BLOOD CELLS [3]: 0 /100WBC
- PLATELET COUNT [3]: 1297.83 x10E3/uL
- ALANINE AMINOTRANSFERASE [4]: 51.17 u/L
- ALKALINE PHOSPHATASE [4]: 393.17 u/L
- ASPARTATE AMINOTRANSFERASE [4]: 111 u/L
- BLOOD UREA NITROGEN [4]: 18.17 mg/dL
- CARBON DIOXIDE [4]: 25 mmol/L
- CHOLESTEROL [4]: 65.5 mg/dL
- CREATINE PHOSPHOKINASE [4]: 911.5 u/L
- CREATININE [4]: 0.21 mg/dL
- GLUCOSE [4]: 183 mg/dL
- LACTATE DEHYDROGENASE [4]: 189 u/L
- LIPASE [4]: 8.33 u/L
- PHOSPHORUS [4]: 12.78 mg/dL
- POTASSIUM [4]: 6.05 MEQ/L
- TOTAL BILIRUBIN [4]: 0.25 mg/dL
- TOTAL PROTEIN [4]: 5.83 G/DL
- URIC ACID [4]: 1.58 mg/dL
- ABSOLUTE BASOPHIL [5]: 0 CELLS/uL
- ABSOLUTE EOSINOPHIL [5]: 159.33 CELLS/uL
- ABSOLUTE MONOCYTE [5]: 0 CELLS/uL
- ABSOLUTE SEGMENTED NEUTROPHIL [5]: 812 CELLS/uL
- BASOPHIL [5]: 0%
- ERYTHROCYTE COUNT [5]: 5.08 x10E6/uL
- HEMATOCRIT [5]: 32.57%
- HEMOGLOBIN [5]: 12.17 G/DL
- LEUKOCYTE COUNT [5]: 12.37 x10E3/uL
- LYMPHOCYTE [5]: 92%
- MEAN CORPUSCULAR HEMOGLOBIN [5]: 23.97 pg
- MEAN CORPUSCULAR HEMOGLOBIN CONCENTRATION [5]: 37.37 G/DL
- MONOCYTE [5]: 0%
- NEUTROPHIL [5]: 6.67%
- NUCLEATED RED BLOOD CELLS [5]: 0 /100WBC
- PLATELET COUNT [5]: 1184.33 x10E3/uL
- ALANINE AMINOTRANSFERASE [6]: 47.67 u/L
- ALKALINE PHOSPHATASE [6]: 375.67 u/L
- ASPARTATE AMINOTRANSFERASE [6]: 80 u/L
- CARBON DIOXIDE [6]: 27 mmol/L
- CHOLESTEROL [6]: 76 mg/dL
- CREATINE PHOSPHOKINASE [6]: 254.67 u/L
- CREATININE [6]: 0.19 mg/dL
- GLUCOSE [6]: 171.67 mg/dL
- LACTATE DEHYDROGENASE [6]: 104.33 u/L
- LIPASE [6]: 8.33 u/L
- PHOSPHORUS [6]: 11.6 mg/dL
- TOTAL BILIRUBIN [6]: 0.13 mg/dL
- TOTAL PROTEIN [6]: 5.73 G/DL
- ABSOLUTE BASOPHIL [7]: 0 CELLS/uL
- ABSOLUTE EOSINOPHIL [7]: 119 CELLS/uL
